According to patent publication US5369113A, “Certain 2,3-diphenyl-2-(1,2,4-oxadiazol-5-yl)tropanes useful as dopamide reuptake inhibitors” (NeuroSearch A/S, priority 1992, dated 1994):

Tests used:
[1] = tested on: dopamine release; details: background statement; cited from earlier work
[2] = at every relevant dosing level tested

Q: For `COC(=O)[C@H]1[C@@H](OC(=O)c2ccccc2)C[C@@H]2CC[C@H]1N2C` [cocaine], which dopamine releasing properties [1] is on record?
A: The dopamine releasing properties was “strong dopamine releasing properties”.

Q: Which “side effects as measured by abnormal stereotyped behaviour” value [2] does the source give for `COC(=O)[C@@H]1[C@@H](c2ccc(F)cc2)C[C@@H]2CC[C@H]1N2C` [trans isomer of Win 35,428, (1R,2R,3S)-2-carbomethoxy-3-(4-fluorophenyl)tropane] here?
A: Its value is “essentially or totally devoid of side effects”.
